Molecules are shown by their SMILES.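 Assay format: 96-well plates, 48-hour exposure. At the GI50, growth is halved. TGI denotes the concentration required for complete inhibition of growth.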 A value given as a limit tells only on which side of the number the result lay.

Test systems include LOX IMVI melanoma; SK-MEL-28 melanoma; IGROV1 ovarian; SNB-19 CNS; NCI-H226 lung; HCT-15 colon; MDA-MB-435; UACC-257 melanoma; HT29 colon; MCF7 breast.
Holding throughout (assay): growth of human tumour cells (NCI), 48 h

As to `CC(=O)[CH-]C(C)=O.CC(=O)[CH-]C(C)=O.CC(=O)[CH-]C(C)=O.[Ga+3]`, the GI50 is 32.7 µM with LOX IMVI melanoma; over 100 µM in the assay with SK-MEL-28 melanoma; over 100 µM in the assay with IGROV1 ovarian; over 100 µM in the assay on SNB-19 CNS; over 100 µM in the assay on NCI-H226 lung; over 100 µM in the assay with HCT-15 colon. Also, the TGI in the assay on LOX IMVI melanoma, in the assay with SK-MEL-28 melanoma, in the assay on IGROV1 ovarian, with SNB-19 CNS, in the assay with NCI-H226 lung and in the assay on HCT-15 colon was over 100 µM in each case.
For the molecule `COC1=C(OC)[C@]2(OC)c3c(O)c(OC)c4c(c3O[C@@]23O[C@@H](c2ccccc2)CC=C3C1=O)[C@@H](OC)C[C@H](c1ccccc1)O4`, the GI50 was 1.58 µM in the assay on LOX IMVI melanoma; 0.591 µM with SK-MEL-28 melanoma; 0.301 µM with MDA-MB-435; 0.814 µM in the assay with UACC-257 melanoma; 0.235 µM in the assay on HT29 colon; 0.374 µM with IGROV1 ovarian. The GI50 was 0.265 µM in the assay with MCF7 breast, 1.81 µM in the assay on SNB-19 CNS and 0.29 µM in the assay on HCT-15 colon. The TGI in the assay with LOX IMVI melanoma stood at 3.31 µM; in the assay on SK-MEL-28 melanoma it was 1.49 µM; with MDA-MB-435, 1.1 µM; in the assay with UACC-257 melanoma, 2.17 µM; in the assay with HT29 colon, 0.612 µM; in the assay with IGROV1 ovarian, 1.41 µM. For the same molecule, the figures for the TGI in the assay on MCF7 breast, with SNB-19 CNS and in the assay with HCT-15 colon were 1.36 µM, 3.51 µM and 0.819 µM, respectively.
Take `O=[N+]([O-])/C=C/c1ccc(Cl)cc1Cl`: the TGI with SK-MEL-28 melanoma was 30.3 µM; in the assay with UACC-257 melanoma, 27.4 µM; with HT29 colon it was 21.8 µM; in the assay with IGROV1 ovarian, 29.4 µM; in the assay on SNB-19 CNS it was 32.4 µM; in the assay on NCI-H226 lung it was 32.2 µM. This molecule displayed a TGI in the assay on HCT-15 colon of 46.4 µM.
Regarding `C=CC[N+]1(CC)CCN=C1CCCCCCCCCCCCCCCCC` (stereo not given), the GI50 was 0.816 µM with SK-MEL-28 melanoma; 0.731 µM in the assay on UACC-257 melanoma; 0.375 µM in the assay on HT29 colon; 0.237 µM in the assay with IGROV1 ovarian; 0.346 µM in the assay on MCF7 breast. Also, the TGI in the assay with SK-MEL-28 melanoma is 2.04 µM; in the assay with UACC-257 melanoma, 2.16 µM; in the assay with HT29 colon it was 1.24 µM; in the assay with IGROV1 ovarian it was 0.475 µM; in the assay with MCF7 breast, 1.28 µM.
For the molecule `CC(=O)CC(=O)CCC(=O)Nc1cccc(C(F)(F)F)c1`, the TGI with LOX IMVI melanoma, in the assay on UACC-257 melanoma, in the assay with HT29 colon, with IGROV1 ovarian, in the assay on SNB-19 CNS and in the assay on NCI-H226 lung was over 100 µM each time. Moreover, the TGI in the assay with HCT-15 colon was over 100 µM.
In the case of `CC(=O)OCC(CC[CH2][Sn]([Cl])([Cl])[c]1ccccc1)OC(C)=O` (stereo not given), the GI50 with LOX IMVI melanoma is 16.8 µM; in the assay on SK-MEL-28 melanoma it was 40.9 µM; in the assay with UACC-257 melanoma, 32.2 µM; in the assay on HT29 colon it was 32.3 µM; with IGROV1 ovarian it was 25.5 µM; with SNB-19 CNS, 27.7 µM. Moreover, the GI50 with NCI-H226 lung was 30.7 µM; in the assay on HCT-15 colon, 17.4 µM. For the same molecule, the TGI in the assay on LOX IMVI melanoma came to 31.6 µM; in the assay with SK-MEL-28 melanoma, 58.6 µM; with UACC-257 melanoma it was 95.4 µM; in the assay with HT29 colon, 94.9 µM; in the assay on IGROV1 ovarian, 68.8 µM; with SNB-19 CNS, 74.6 µM. The TGI with NCI-H226 lung was over 100 µM; in the assay with HCT-15 colon it was 32.1 µM.
Regarding `O=C(CO)C1CC2C=CC1C2` (stereo not given), the TGI in the assay with LOX IMVI melanoma, in the assay with SK-MEL-28 melanoma, in the assay with UACC-257 melanoma, in the assay on HT29 colon, with IGROV1 ovarian and with SNB-19 CNS was over 100 µM each time. Further, the TGI in the assay on HCT-15 colon was over 100 µM.
As for `C[P+]1(c2ccccc2)CCCCC1`, the TGI in the assay with LOX IMVI melanoma, in the assay with SK-MEL-28 melanoma, in the assay on UACC-257 melanoma, in the assay with HT29 colon, in the assay on IGROV1 ovarian and in the assay on SNB-19 CNS was over 100 µM in each case. Further, in the assay with HCT-15 colon, the TGI is over 100 µM.
With `Clc1ccc([I+]c2ccc(Cl)cc2Cl)c(Cl)c1`, the GI50 in the assay with LOX IMVI melanoma was 1.77 µM; in the assay on SK-MEL-28 melanoma, 7.14 µM; in the assay on MDA-MB-435 it was 1.96 µM; with UACC-257 melanoma, 2.38 µM; in the assay with HT29 colon, 1.78 µM; in the assay on MCF7 breast, 1.87 µM. Besides, the GI50 was 4.28 µM in the assay with SNB-19 CNS and 2.06 µM with HCT-15 colon. The TGI was 3.36 µM in the assay with LOX IMVI melanoma; 21.1 µM with SK-MEL-28 melanoma; 4.33 µM in the assay with MDA-MB-435; 5.8 µM in the assay on UACC-257 melanoma; 3.26 µM with HT29 colon; over 100 µM in the assay on MCF7 breast. The TGI in the assay on SNB-19 CNS was 15.9 µM; with HCT-15 colon, 5.25 µM.
With `C=C1C=CC2(Br)OC3CC(C)(Cl)C(Br)CC13C2(C)C` (stereo not given), the TGI came to 33.8 µM in the assay on LOX IMVI melanoma; 54.4 µM with SK-MEL-28 melanoma; 42.8 µM in the assay on UACC-257 melanoma; 36.5 µM with HT29 colon; 92.7 µM with IGROV1 ovarian; 88.3 µM in the assay with SNB-19 CNS. Also, the TGI came to 34.1 µM with NCI-H226 lung and 51.3 µM in the assay on HCT-15 colon.
In the case of `O=C(c1c(O)cc(O)cc1O)C1Cc2ccccc21` (stereo not given), the TGI with LOX IMVI melanoma, with UACC-257 melanoma, in the assay on HT29 colon, with IGROV1 ovarian, in the assay on SNB-19 CNS and in the assay on NCI-H226 lung was over 100 µM each time. This molecule also gave a TGI in the assay on HCT-15 colon of over 100 µM.
`CCOC(=O)C(CCCNC(=O)OC(C)(C)C)N(Cc1ccc(OC)cc1OC)C(=O)CC(=O)CP(=O)(OCC)OCC` (stereo not given): the TGI in the assay on LOX IMVI melanoma, in the assay with SK-MEL-28 melanoma, with UACC-257 melanoma, in the assay with HT29 colon, with IGROV1 ovarian and with SNB-19 CNS was over 100 µM in each case. The molecule further showed a TGI with NCI-H226 lung of over 100 µM.
Turning to `Cc1ccc(C2=Nc3ccccc3SC(c3cccc4c3OCO4)C2)cc1` (stereo not given), the TGI is 31.1 µM with LOX IMVI melanoma; 32.9 µM with SK-MEL-28 melanoma; 38.4 µM in the assay with UACC-257 melanoma; 33.2 µM in the assay on HT29 colon; 42.4 µM with IGROV1 ovarian; 30.7 µM in the assay with SNB-19 CNS. For the same molecule, the TGI amounted to 37 µM in the assay on NCI-H226 lung and 54.1 µM in the assay with HCT-15 colon.

The values are drawn from PubChem BioAssay (NCI).
